The results in this text go back to US20110311517A1, “Antibodies and methods for treating estrogen receptor-associated diseases” (SHENOGEN PHARMA GROUP, LTD., priority 2009, published 2011).

This assay relates to implanted tumors. Description: Comparison of anti-tumor activity of ScFv-7 with tamoxifen on tumor-bearing nude mice. In kind it is in vivo, BALB/c-nu female nude mice. The conditions noted are these: after 18 days of drug administration. On the procedure:
BALB/c-nu female nude mice were divided into 3 groups, with 7 mice in each group.
Human anti-ERα36 ScFv-7 was administered at the dose of 0.1 mg/20 g body weight/day. The positive control tamoxifen was administered at the dose of 0.33 mg/20 g body weight/day. The negative control group was administered with human IgG.
The tumor-bearing nude mice were weighed, and the volumes of the implanted tumors were measured every 3-4 days. The relative tumor volumes and tumor growth inhibition rates were calculated using Equation 2 and Equation 4 respectively. Animals received drug administration for 18 days and were terminated 24 h later. The tumors were excised from the animals and weighed. The average tumor weights and tumor growth inhibitions were calculated using Equation 4.

For the molecule `CC/C(=C(\c1ccccc1)c1ccc(OCCN(C)C)cc1)c1ccccc1` [tamoxifen, reference compound], where the note is “ScFv-7 0.1 mg/20 g body weight/day, tamoxifen 0.33 mg/20 g body weight/day”, the tumor inhibition rates entry is “around 60%”. Further, the “average tumor weights compared with negative group” value (p-values below 0.01) is given as “significant difference”.
